The values below come from patent US8796289B2 (AbbVie Inc., priority 2011, dated 2014).

Chain of GST-tagged-Wee1 kinase (P30291 whole entry): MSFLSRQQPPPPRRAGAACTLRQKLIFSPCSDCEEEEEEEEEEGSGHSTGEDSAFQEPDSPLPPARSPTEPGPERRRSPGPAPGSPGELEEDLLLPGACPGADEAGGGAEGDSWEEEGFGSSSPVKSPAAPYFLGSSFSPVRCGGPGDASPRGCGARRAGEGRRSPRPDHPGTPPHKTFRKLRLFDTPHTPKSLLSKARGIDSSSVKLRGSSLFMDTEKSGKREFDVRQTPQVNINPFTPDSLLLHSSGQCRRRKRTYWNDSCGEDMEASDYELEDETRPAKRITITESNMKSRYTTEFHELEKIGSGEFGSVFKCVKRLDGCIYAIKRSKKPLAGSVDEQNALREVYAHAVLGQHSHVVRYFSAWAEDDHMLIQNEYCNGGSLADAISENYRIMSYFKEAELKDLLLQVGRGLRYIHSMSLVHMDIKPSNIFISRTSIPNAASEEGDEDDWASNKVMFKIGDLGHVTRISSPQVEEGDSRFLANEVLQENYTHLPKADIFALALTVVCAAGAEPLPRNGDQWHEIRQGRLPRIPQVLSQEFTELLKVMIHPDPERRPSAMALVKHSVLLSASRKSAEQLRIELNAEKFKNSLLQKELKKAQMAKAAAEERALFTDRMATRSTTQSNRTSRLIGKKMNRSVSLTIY

The experiment concerns the target GST-tagged-Wee1 kinase (Homo sapiens, UniProt P30291). Kind of experiment: Wee1 time-resolved fluorescence equilibrium binding assay (displacement of Oregon Green-labeled ATP-competitive kinase probe). On the procedure: Wee1 kinase was assayed using a time-resolved fluorescence equilibrium binding assay monitoring displacement of a rapidly reversible Oregon Green-labeled ATP-competitive kinase probe (N-(2-(2-(2-(4-(4-(5-chloro-4-(2-(1-hydroxycyclobutyl)thiazol-5-yl)-1H-pyrrolo[2,3-b]pyridin-2-yl)phenyl)piperazin-1-yl)ethoxy)ethoxy)ethyl)-2′,7′-difluoro-3′,6′-dihydroxy-3-oxo-3H-spiro[isobenzofuran-1,9′-xanthene]-5-carboxamide) by competitive Wee1 inhibitors.
For orientation: Ki means a measure of affinity in units of concentration, obtained from inhibition or displacement. A low value points to a stronger hold on the target. For `O=c1c2cnc(Nc3ccc4c(c3)CNCC4)nc2cnn1-c1c(Cl)cccc1Cl` [Example 327, 6-(2,6-dichlorophenyl)-2-(1,2,3,4-tetrahydroisoquinolin-7-ylamino)pyrimido[4,5-d]pyridazin-5(6H)-one], the inhibition constant Ki was determined as 930 pM.

In the case of `CN1CCC(n2nc(-c3ccccn3)c3nc(Nc4ccc5c(c4)CN(C)CC5(C)C)ncc3c2=O)CC1` [Example 328, 6-(1-methylpiperidin-4-yl)-8-(pyridin-2-yl)-2-[(2,4,4-trimethyl-1,2,3,4-tetrahydroisoquinolin-7-yl)amino]pyrimido[4,5-d]pyridazin-5(6H)-one], affinity was put at a Ki of 220000 pM.

Compound `CN1CCC(n2nc(-c3ccccn3)c3nc(Nc4ccc5c(c4)CNCC5(C)C)ncc3c2=O)CC1` [Example 329, 2-[(4,4-dimethyl-1,2,3,4-tetrahydroisoquinolin-7-yl)amino]-6-(1-methylpiperidin-4-yl)-8-(pyridin-2-yl)pyrimido[4,5-d]pyridazin-5(6H)-one] displayed a Ki of 27000 pM.

Regarding `CC1CCCC(C)C1n1nc(-c2ccccn2)c2nc(Nc3ccc4c(c3)CN(C)CC4(C)C)ncc2c1=O` (centres unmarked) [Example 330, 6-(2,6-dimethylcyclohexyl)-8-(pyridin-2-yl)-2-[(2,4,4-trimethyl-1,2,3,4-tetrahydroisoquinolin-7-yl)amino]pyrimido[4,5-d]pyridazin-5(6H)-one], the affinity, expressed as Ki, was 260000 pM. Compared with the last compound, the Ki is about 9.6-fold higher.

As to `CC1CCCC(C)C1n1nc(-c2ccccn2)c2nc(Nc3ccc4c(c3)CNCC4(C)C)ncc2c1=O` (centres unmarked) [Example 331, 6-(2,6-dimethylcyclohexyl)-2-[(4,4-dimethyl-1,2,3,4-tetrahydroisoquinolin-7-yl)amino]-8-(pyridin-2-yl)pyrimido[4,5-d]pyridazin-5(6H)-one], affinity was put at a Ki of 180000 pM.

The compound `CN1CCCC(n2nc(-c3ccccn3)c3nc(Nc4ccc5c(c4)CNCC5(C)C)ncc3c2=O)C1` (centres unmarked) [Example 332, 2-[(4,4-dimethyl-1,2,3,4-tetrahydroisoquinolin-7-yl)amino]-6-(1-methylpiperidin-3-yl)-8-(pyridin-2-yl)pyrimido[4,5-d]pyridazin-5(6H)-one] yielded a Ki of 490000 pM.

`CC1CCCC(C)C1n1nc(-c2ccccn2)c2nc(Nc3ccc(N4CCNCC4)cc3)ncc2c1=O` (centres unmarked) [Example 333, 6-(2,6-dimethylcyclohexyl)-2-{[4-(piperazin-1-yl)phenyl]amino}-8-(pyridin-2-yl)pyrimido[4,5-d]pyridazin-5(6H)-one]: the affinity, expressed as Ki, was 770000 pM.

The compound `CN1CCCC(n2nc(-c3ccccn3)c3nc(Nc4ccc(N5CCNCC5)cc4)ncc3c2=O)C1` (centres unmarked) [Example 334, 6-(1-methylpiperidin-3-yl)-2-{[4-(piperazin-1-yl)phenyl]amino}-8-(pyridin-2-yl)pyrimido[4,5-d]pyridazin-5(6H)-one] registered a Ki of 640000 pM.

`CC(C)n1cc(-c2nn(-c3c(F)cccc3Cl)c(=O)c3cnc(Nc4ccc5c(c4)CNCC54CC4)nc23)cn1` [Example 335, 6-(2-chloro-6-fluorophenyl)-2-(2′,3′-dihydro-1′H-spiro[cyclopropane-1,4′-isoquinolin]-7′-ylamino)-8-[1-(propan-2-yl)-1H-pyrazol-4-yl]pyrimido[4,5-d]pyridazin-5(6H)-one]: the inhibitory constant (Ki) was determined as 210 pM.

The compound `CN1CCN(c2ccc(Nc3ncc4c(=O)n(-c5ncccc5Cl)nc(-c5ccncc5)c4n3)cc2)CC1` [Example 336, 6-(3-chloropyridin-2-yl)-2-{[4-(4-methylpiperazin-1-yl)phenyl]amino}-8-(pyridin-4-yl)pyrimido[4,5-d]pyridazin-5(6H)-one] showed a Ki of 490 pM.

Take `CC(C)n1cc(-c2nn(-c3c(Cl)cccc3Cl)c(=O)c3cnc(Nc4ccc5c(c4)CNCC54CC4)nc23)cn1` [Example 337, 6-(2,6-dichlorophenyl)-2-(2′,3′-dihydro-1′H-spiro[cyclopropane-1,4′-isoquinolin]-7′-ylamino)-8-[1-(propan-2-yl)-1H-pyrazol-4-yl]pyrimido[4,5-d]pyridazin-5(6H)-one]: the affinity corresponds to a Ki of 220 pM.

Compound `CN1CCN(c2ccc(Nc3ncc4c(=O)n(-c5c(Cl)cccc5Cl)nc(-c5cn(C)cn5)c4n3)cc2)CC1` [Example 338, 6-(2,6-dichlorophenyl)-8-(1-methyl-1H-imidazol-4-yl)-2-{[4-(4-methylpiperazin-1-yl)phenyl]amino}pyrimido[4,5-d]pyridazin-5(6H)-one] showed a Ki of 720 pM. This Ki lies about 3.3-fold higher than the previous one.

Compound `CN1Cc2cc(Nc3ncc4c(=O)n(-c5c(Cl)cccc5Cl)nc(-c5cn(C)cn5)c4n3)ccc2C2(CC2)C1` [Example 339, 6-(2,6-dichlorophenyl)-2-[(2′-methyl-2′,3′-dihydro-1′H-spiro[cyclopropane-1,4′-isoquinolin]-7′-yl)amino]-8-(1-methyl-1H-imidazol-4-yl)pyrimido[4,5-d]pyridazin-5(6H)-one] registered a Ki of 710 pM.

Turning to `Cn1cnc(-c2nn(-c3c(Cl)cccc3Cl)c(=O)c3cnc(Nc4ccc(N5CCNCC5)cc4)nc23)c1` [Example 340, 6-(2,6-dichlorophenyl)-8-(1-methyl-1H-imidazol-4-yl)-2-{[4-(piperazin-1-yl)phenyl]amino}pyrimido[4,5-d]pyridazin-5(6H)-one], the Ki was found to be 320 pM.

Consider `Cn1cnc(-c2nn(-c3c(Cl)cccc3Cl)c(=O)c3cnc(Nc4ccc5c(c4)CNCC54CC4)nc23)c1` [Example 341, 6-(2,6-dichlorophenyl)-2-(2′,3′-dihydro-1′H-spiro[cyclopropane-1,4′-isoquinolin]-7′-ylamino)-8-(1-methyl-1H-imidazol-4-yl)pyrimido[4,5-d]pyridazin-5(6H)-one], for which the Ki came to 1000 pM.

The compound `Cn1cnc(-c2nn(-c3c(Cl)cccc3Cl)c(=O)c3cnc(Nc4ccc5c(c4)CNCC5)nc23)c1` [Example 342, 6-(2,6-dichlorophenyl)-8-(1-methyl-1H-imidazol-4-yl)-2-(1,2,3,4-tetrahydroisoquinolin-7-ylamino)pyrimido[4,5-d]pyridazin-5(6H)-one] yielded a Ki of 1000 pM.

In the case of `CN1CCN(c2ccc(Nc3ncc4c(=O)n(-c5ncccc5Cl)nc(-c5cn(C)cn5)c4n3)cc2)CC1` [Example 343, 6-(3-chloropyridin-2-yl)-8-(1-methyl-1H-imidazol-4-yl)-2-{[4-(4-methylpiperazin-1-yl)phenyl]amino}pyrimido[4,5-d]pyridazin-5(6H)-one], the Ki was determined as 6900 pM.

Regarding `O=c1c2cnc(Nc3ccc(N4CCNCC4)cc3)nc2c(-c2nccs2)nn1-c1c(Cl)cccc1Cl` [Example 344, 6-(2,6-dichlorophenyl)-2-{[4-(piperazin-1-yl)phenyl]amino}-8-(1,3-thiazol-2-yl)pyrimido[4,5-d]pyridazin-5(6H)-one], affinity was put at a Ki of 250 pM.

Regarding `O=c1c2cnc(Nc3ccc4c(c3)CNCC43CC3)nc2c(-c2nccs2)nn1-c1c(Cl)cccc1Cl` [Example 345, 6-(2,6-dichlorophenyl)-2-(2′,3′-dihydro-1′H-spiro[cyclopropane-1,4′-isoquinolin]-7′-ylamino)-8-(1,3-thiazol-2-yl)pyrimido[4,5-d]pyridazin-5(6H)-one], the affinity, expressed as Ki, was 340 pM.

`O=c1c2cnc(Nc3ccc4c(c3)CNCC4)nc2c(-c2nccs2)nn1-c1c(Cl)cccc1Cl` [Example 346, 6-(2,6-dichlorophenyl)-2-(1,2,3,4-tetrahydroisoquinolin-7-ylamino)-8-(1,3-thiazol-2-yl)pyrimido[4,5-d]pyridazin-5(6H)-one] came in with a Ki of 210 pM.
